Literature values as cited in patent US8067405B2, “Superoxide dismutase mimics for the treatment of ocular disorders and diseases” (Novartis AG, priority 2002, dated 2011).

Tested on: diabetogenic T-cell clone
Conditions: in a cloned cell

CCN1C=CC=C/C1=C1/C2=NC(=C(c3cccc[n+]3CC)C3=NC(=C(c4cccc[n+]4CC)c4ccc([n-]4)C(c4cccc[n+]4CC)=C4C=CC1=N4)C=C3)C=C2.[Cl-].[Cl-].[Cl-].[Cl-].[Cl-].[Mn+3] [AEOL10113]
onset of diabetes: delay the onset of diabetes
